Measured values from ChEMBL document CHEMBL5042544, “Discovery of a Potent and Selective ATAD2 Bromodomain Inhibitor with Antiproliferative Activity in Breast Cancer Models” (J Med Chem, 2022).
Active and inactive are the calls of the source. No cut-off for these calls is given here.

Key:
[1] = target: T1, ATPase family AAA domain-containing protein 2 (Homo sapiens, UniProt Q6PL18); experiment: Inhibition of GST-ATAD2 BD (951 to 1132 residues) (unknown origin) expressed in Escherichia coli BL21 (DE3) and biotinylated tetra-acetylated histone H4 peptides as substrate incubated for 30 mins by TR-FRET assay
T1 sequence (Q6PL18 whole entry): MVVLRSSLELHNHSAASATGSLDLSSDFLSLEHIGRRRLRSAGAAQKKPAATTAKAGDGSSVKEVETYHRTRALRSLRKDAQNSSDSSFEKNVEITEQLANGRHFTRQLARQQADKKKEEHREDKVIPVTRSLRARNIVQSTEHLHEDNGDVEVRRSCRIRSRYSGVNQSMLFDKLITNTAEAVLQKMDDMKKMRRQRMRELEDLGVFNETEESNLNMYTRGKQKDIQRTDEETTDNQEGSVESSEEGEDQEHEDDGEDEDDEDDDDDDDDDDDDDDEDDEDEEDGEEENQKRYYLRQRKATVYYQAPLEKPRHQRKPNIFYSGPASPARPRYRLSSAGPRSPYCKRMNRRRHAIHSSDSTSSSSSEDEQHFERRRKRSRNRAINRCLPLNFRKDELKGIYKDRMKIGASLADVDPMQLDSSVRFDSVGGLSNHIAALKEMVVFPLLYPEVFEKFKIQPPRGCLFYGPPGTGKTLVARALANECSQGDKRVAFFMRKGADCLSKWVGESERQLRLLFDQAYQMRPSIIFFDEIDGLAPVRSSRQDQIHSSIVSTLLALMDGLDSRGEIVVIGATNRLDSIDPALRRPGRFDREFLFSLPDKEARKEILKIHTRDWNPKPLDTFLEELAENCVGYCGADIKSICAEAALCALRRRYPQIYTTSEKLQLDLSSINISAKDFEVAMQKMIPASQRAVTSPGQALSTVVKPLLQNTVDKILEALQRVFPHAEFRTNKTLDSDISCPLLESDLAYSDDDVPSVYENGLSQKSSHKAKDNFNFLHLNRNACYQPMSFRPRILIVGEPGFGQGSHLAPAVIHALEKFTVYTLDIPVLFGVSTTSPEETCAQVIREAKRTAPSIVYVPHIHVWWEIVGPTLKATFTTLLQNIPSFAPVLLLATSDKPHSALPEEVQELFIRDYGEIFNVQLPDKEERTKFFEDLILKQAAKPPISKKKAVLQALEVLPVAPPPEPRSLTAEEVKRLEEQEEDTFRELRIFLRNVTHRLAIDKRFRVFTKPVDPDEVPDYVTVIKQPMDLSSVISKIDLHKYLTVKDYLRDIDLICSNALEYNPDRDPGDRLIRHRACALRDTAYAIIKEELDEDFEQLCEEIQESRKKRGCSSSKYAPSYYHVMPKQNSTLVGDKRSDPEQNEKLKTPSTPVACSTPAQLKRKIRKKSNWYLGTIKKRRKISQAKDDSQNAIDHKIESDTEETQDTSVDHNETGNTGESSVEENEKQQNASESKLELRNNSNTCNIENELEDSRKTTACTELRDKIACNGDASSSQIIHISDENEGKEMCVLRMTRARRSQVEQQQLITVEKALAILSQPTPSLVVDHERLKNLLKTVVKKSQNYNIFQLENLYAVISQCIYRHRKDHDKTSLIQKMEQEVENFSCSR

[2] = target: T2, Bromodomain-containing protein 4 (Homo sapiens, UniProt O60885); experiment: Displacement of Alexafluor 647-JQ1 from GST-BRD4 BD1 BD2 (44 to 460 residues) (unknown origin) incubated for 60 mins by fluorescence polarization assay
[3] = target: T1, ATPase family AAA domain-containing protein 2; experiment: Displacement of Halo-tagged Histone H3.3 from Nanoluc-ATAD2 BD (962 to 1119 residues) (unknown origin) transfected in human HCT116 cells incubated for 18 hrs in presence of efflux inhibitor reversan by NanoBRET assay; type: cell-based, HCT-116
[4] = target: T1, ATPase family AAA domain-containing protein 2; experiment: Displacement of Halo-tagged Histone H3.3 from Nanoluc-ATAD2 BD (962 to 1119 residues) (unknown origin) transfected in human HCT116 cells incubated for 18 hrs in presence of efflux inhibitor elacridar by NanoBRET assay; type: cell-based, HCT-116
[5] = target: ATPase family AAA domain-containing protein 2B (Homo sapiens) (UniProt Q9ULI0); experiment: Binding affinity to human ATAD2B bromodomain assessed as residual activity at 300 nM by BROMOscan method relative to control
[6] = target: Bromodomain adjacent to zinc finger domain protein 2B (Homo sapiens) (UniProt Q9UIF8); experiment: Binding affinity to human BAZ2B bromodomain assessed as residual activity at 300 nM by BROMOscan method relative to control
[7] = target: T2, Bromodomain-containing protein 4; experiment: Binding affinity to human BRD4 bromodomain 2 assessed as residual activity at 300 nM by BROMOscan method relative to control
[8] = target: Bromodomain and PHD finger-containing protein 3 (Homo sapiens) (UniProt Q9ULD4); experiment: Binding affinity to human […] bromodomain assessed as residual activity at 300 nM by BROMOscan method relative to control
[9] = target: Chromatin remodeling regulator CECR2 (Homo sapiens, UniProt Q9BXF3); experiment: Binding affinity to human CECR2 bromodomain assessed as residual activity at 300 nM by BROMOscan method relative to control
[10] = target: Histone acetyltransferase p300 (Homo sapiens, UniProt Q09472); experiment: Binding affinity to human EP300 bromodomain assessed as residual activity at 300 nM by BROMOscan method relative to control
Protein polybromo-1 = Protein polybromo-1 (Homo sapiens, UniProt Q86U86); experiment: Binding affinity to human PBRM1 bromodomain 2 assessed as residual activity at 300 nM by BROMOscan method relative to control
[11] = target: E3 ubiquitin-protein ligase TRIM33 (Homo sapiens) (UniProt Q9UPN9); experiment: Binding affinity to human TRIM33 bromodomain assessed as residual activity at 300 nM by BROMOscan method relative to control
[12] = target: Bromodomain and WD repeat-containing protein 1 (Homo sapiens, UniProt Q9NSI6); experiment: Binding affinity to human WDR9 bromodomain 2 assessed as residual activity at 300 nM by BROMOscan method relative to control
[13] = target: Transcription initiation factor TFIID subunit 1 (Homo sapiens, UniProt P21675); experiment: Binding affinity to human TAF1 bromodomain 2 assessed as dissociation constant by BROMOscan method
SK-BR-3 [14] = experiment: Antiproliferative activity against human SK-BR-3 cells expressing ATAD2 assessed as inhibition of colony formation at 0.01 to 10 uM measured after 14 to 21 days by AlamarBlue staining based colony formation assay; type: functional, cell-based; details: dose 0.01-10 µM, time 14-21 day
SK-BR-3 [15] = experiment: Antiproliferative activity against human SK-BR-3 cells expressing BRD1 assessed as inhibition of colony formation at 0.01 to 10 uM measured after 14 to 21 days by alamarBlue based colony formation assay; type: functional, cell-based; details: dose 0.01-10 µM, time 14-21 day
Homo sapiens = species on record: Homo sapiens; experiment: Selectivity ratio of IC50 for Inhibition of […] GST-ATAD2 BD (981 to 1108 residues) (unknown origin) expressed in Escherichia coli BL21 (DE3) to IC50 for Halo-tagged Histone H3.3 from Nanoluc-ATAD2 BD ([…] residues) (unknown origin) transfected in human HCT116 cells

Chain of Chromatin remodeling regulator CECR2 (Q9BXF3 whole entry, looked up): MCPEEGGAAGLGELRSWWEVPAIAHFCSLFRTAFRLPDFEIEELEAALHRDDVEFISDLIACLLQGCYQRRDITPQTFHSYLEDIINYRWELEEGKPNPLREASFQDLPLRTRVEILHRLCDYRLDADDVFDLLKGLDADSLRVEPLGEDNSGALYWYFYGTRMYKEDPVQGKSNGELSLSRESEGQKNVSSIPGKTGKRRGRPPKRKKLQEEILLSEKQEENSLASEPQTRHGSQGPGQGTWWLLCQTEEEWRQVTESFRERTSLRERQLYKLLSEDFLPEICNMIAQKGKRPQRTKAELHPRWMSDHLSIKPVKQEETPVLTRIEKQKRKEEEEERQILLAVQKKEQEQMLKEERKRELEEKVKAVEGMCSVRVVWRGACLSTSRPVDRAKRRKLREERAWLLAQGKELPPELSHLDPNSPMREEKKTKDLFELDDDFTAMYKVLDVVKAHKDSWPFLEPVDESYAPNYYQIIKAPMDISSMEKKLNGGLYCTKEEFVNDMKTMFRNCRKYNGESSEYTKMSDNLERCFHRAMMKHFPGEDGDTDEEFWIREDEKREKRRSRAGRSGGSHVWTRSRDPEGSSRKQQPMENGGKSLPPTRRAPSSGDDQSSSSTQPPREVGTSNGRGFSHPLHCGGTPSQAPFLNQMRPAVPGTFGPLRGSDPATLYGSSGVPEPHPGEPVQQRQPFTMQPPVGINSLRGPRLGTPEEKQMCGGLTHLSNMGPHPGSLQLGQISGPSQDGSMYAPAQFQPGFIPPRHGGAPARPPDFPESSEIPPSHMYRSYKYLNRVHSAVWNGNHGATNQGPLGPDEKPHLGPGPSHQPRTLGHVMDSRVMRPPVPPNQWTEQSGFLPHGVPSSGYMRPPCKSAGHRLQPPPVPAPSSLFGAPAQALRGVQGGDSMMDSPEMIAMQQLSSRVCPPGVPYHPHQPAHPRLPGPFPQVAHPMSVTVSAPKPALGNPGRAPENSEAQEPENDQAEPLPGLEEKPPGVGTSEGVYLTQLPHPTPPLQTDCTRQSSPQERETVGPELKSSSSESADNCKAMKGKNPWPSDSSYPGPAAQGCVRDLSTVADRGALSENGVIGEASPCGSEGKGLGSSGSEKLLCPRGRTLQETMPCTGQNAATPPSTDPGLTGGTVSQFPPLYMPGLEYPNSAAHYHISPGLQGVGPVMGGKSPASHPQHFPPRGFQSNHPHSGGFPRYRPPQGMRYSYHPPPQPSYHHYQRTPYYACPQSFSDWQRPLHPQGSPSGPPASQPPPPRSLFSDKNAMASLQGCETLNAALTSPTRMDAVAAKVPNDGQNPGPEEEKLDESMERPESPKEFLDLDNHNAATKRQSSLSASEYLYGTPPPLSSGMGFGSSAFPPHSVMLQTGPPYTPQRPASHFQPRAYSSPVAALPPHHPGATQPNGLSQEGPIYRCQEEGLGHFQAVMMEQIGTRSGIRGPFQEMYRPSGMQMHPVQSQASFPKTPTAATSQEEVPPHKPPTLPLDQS
Chain of ATPase family AAA domain-containing protein 2B (Homo sapiens) (Q9ULI0 whole entry, the tested form may be a part): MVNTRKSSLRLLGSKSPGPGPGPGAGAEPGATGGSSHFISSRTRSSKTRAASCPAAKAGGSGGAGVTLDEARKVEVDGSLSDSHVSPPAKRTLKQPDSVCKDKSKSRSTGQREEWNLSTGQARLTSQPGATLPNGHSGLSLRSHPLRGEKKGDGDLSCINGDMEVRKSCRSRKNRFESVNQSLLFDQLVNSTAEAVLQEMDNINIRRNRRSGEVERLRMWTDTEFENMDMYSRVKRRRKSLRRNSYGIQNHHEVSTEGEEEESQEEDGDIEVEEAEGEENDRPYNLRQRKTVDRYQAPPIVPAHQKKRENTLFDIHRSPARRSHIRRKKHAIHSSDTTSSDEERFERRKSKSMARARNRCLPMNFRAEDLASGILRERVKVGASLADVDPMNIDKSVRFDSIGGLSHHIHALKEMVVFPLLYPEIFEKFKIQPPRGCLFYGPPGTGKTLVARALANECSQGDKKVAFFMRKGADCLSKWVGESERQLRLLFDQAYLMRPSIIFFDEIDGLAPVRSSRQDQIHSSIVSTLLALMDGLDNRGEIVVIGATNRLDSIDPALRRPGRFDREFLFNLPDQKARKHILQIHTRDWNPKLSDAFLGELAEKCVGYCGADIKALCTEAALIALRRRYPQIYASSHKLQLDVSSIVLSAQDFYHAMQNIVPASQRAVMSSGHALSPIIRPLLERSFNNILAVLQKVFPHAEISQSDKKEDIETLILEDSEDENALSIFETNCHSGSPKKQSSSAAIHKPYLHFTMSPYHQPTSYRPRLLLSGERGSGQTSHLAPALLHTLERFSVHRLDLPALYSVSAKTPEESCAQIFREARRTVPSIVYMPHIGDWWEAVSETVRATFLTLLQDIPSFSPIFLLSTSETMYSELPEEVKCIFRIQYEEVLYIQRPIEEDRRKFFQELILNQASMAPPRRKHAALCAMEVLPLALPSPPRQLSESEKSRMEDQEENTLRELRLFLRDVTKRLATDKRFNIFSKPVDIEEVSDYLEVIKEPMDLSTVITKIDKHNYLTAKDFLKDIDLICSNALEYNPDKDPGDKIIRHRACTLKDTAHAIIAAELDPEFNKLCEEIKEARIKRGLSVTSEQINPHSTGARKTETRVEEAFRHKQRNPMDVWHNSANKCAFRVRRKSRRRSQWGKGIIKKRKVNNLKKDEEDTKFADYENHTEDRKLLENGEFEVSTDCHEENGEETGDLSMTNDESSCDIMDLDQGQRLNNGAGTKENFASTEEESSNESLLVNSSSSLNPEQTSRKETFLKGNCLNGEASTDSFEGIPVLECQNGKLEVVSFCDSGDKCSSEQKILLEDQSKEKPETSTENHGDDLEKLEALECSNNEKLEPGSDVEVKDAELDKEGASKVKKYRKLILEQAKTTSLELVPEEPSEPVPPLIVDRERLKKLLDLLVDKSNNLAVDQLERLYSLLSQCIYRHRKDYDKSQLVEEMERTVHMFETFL
Chain of Bromodomain and PHD finger-containing protein 3 (Homo sapiens) (Q9ULD4 whole entry): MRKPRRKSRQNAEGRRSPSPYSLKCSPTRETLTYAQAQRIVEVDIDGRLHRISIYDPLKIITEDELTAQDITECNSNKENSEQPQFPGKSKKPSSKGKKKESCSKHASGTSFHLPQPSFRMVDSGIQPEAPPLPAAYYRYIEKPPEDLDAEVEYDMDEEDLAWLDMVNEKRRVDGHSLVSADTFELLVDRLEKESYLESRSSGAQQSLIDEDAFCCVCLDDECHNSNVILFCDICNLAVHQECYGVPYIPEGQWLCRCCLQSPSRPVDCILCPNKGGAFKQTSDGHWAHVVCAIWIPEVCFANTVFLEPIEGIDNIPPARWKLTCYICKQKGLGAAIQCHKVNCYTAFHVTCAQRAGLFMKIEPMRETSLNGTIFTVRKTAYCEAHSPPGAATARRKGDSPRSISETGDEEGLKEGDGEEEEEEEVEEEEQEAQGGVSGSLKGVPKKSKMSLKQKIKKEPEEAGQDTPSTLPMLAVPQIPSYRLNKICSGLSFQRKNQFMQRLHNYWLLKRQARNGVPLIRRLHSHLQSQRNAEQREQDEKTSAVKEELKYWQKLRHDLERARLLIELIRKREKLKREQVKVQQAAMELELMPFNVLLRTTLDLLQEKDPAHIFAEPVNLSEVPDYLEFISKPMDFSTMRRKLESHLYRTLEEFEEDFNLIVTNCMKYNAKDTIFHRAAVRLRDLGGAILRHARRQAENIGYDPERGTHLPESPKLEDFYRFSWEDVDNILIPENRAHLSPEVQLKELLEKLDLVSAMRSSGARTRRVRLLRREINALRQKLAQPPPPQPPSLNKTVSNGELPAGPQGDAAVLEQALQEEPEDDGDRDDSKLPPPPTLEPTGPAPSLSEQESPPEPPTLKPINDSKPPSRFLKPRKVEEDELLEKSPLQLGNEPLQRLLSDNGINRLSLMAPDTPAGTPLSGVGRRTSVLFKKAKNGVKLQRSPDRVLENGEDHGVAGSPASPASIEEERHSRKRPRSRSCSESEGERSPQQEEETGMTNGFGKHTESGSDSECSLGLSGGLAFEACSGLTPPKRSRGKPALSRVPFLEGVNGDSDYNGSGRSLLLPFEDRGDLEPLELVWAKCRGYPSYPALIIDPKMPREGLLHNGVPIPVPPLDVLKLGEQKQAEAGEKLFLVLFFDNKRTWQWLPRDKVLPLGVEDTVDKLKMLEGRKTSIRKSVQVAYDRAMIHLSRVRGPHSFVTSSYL

IC50 [1]: 7 nM
IC50 [2]: 20000 nM
IC50 [3]: 79.4 nM
IC50 [4]: 100 nM
Activity [5]: 0%
Activity [6]: 75%
Activity [7]: 73%
Activity [8]: 66%
Activity [9]: 59%
Activity [10]: 41%
Activity (Protein polybromo-1): 80%
Activity [11]: 96%
Activity [12]: 53%
Kd [13]: 158 nM
Compound: Cc1nnc2c(NC3CCN(CC(C)(C)F)CC3)cc(C(=O)N3[C@@H]4c5ccccc5C[C@H]3C(=O)N[C@@H]4C(C)C)nn12
Activity (SK-BR-3 [14]): Dose-Dependent Effect
Activity (SK-BR-3 [15]): inactive
Ratio IC50 (Homo sapiens): 20
